Results as given in patent US10722586B2, “Filmogenic compositions for topical anaesthetic bioadhesives—tabs, for controlled release of active principles and topical anaesthetic bioadhesives” (UNIVERSIDADE FEDERAL DE PELOTAS, priority 2014, dated 2020).

System: cell line of mouse fibroblasts (NIH/3T3)
Test: Cytotoxicity test (MTT, ISO 10993) on NIH/3T3 fibroblasts
Assay type: cell-based
Settings: absorbance at 540 nm, mean (±SD)
Experimental: The cytotoxicity of the products of the invention is evaluated with the cell line of mouse fibroblasts (NIH/3T3).
The test is performed according to ISO 10993 (2009). The cell suspension is plated at a concentration of 2×10^4 cells per well and delivered into a cell culture dish of 96 wells. Each well receives 200 μl DMEM (Dulbecco's Modified Eagle Medium) supplemented with 10% Fetal Bovine Serum. The plate is then incubated at 37° C. in an atmosphere containing 5% CO2 for 24 hours. In control wells, 200 μl DMEM (Dulbecco's Modified Eagle Medium) is supplemented with fetal bovine serum 10%. After removal of the test extracts, 200 μl PBS (phosphate buffered saline) and 20 μl of MTT (tetrazolium salt [3-(4,5-dimetltiazol-2-yl)-2,5-diphenyltetrazolium bromide] are added to each well. The plate is incubated in a room without light for 24 hours at 37° C. After that, MTT is aspirated and 200 μl dimethylsulfoxide (DMSO) is added to each well. Thereafter, absorbance at 540 nm is measured using a spectrophotometer and the results were analyzed statistically.
The data are tabulated and submitted to Kruskal-Wallis nonparametric statistical analysis and Tukey's complementary test (p<0.05).
The results of cytotoxicity testing are illustrated in FIG. 10.

CCOC(=O)c1ccc(N)cc1 [Example P20, benzocaine]
ABSORBANCE (540 nm): 0.511 (±0.032)^A
